Literature values in patent publication US10603382B2, “Ophthalmic composition” (Johnson & Johnson Consumer Inc., priority 2014, dated 2020).

Conditions: Merck Index, Twelfth Edition

Compound	Solubility (g/100 ml water at 25° C.)
O=C(O)CCCC(=O)O [Glutaric acid]	63.9 g/100 ml
O=C(O)/C=C/C(=O)O [Fumaric acid]	0.63 g/100 ml
O=C(O)/C=C\C(=O)O [Maleic acid]	78 g/100 ml
